Here are results for 24 molecules from US10316017B2, “COT modulators and methods of use thereof” (Gilead Sciences, Inc., priority 2015, dated 2019).

T1 sequence (P41279 30-397): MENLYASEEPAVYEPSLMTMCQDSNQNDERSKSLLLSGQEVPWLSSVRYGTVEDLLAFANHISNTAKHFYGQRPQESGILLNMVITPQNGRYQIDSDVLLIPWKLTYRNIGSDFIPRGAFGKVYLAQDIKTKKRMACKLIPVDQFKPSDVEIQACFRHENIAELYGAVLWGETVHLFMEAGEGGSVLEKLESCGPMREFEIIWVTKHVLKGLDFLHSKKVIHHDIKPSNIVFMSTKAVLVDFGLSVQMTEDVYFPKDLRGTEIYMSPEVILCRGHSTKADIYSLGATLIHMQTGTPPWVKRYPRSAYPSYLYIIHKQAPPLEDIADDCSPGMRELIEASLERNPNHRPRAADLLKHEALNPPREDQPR

The first test addresses T1, human Cot catalytic domain (30-397 amino acids) (Homo sapiens, UniProt P41279).
T1 construct: Purified recombinant human Cot catalytic domain (30-397 amino acids) was purchased from Cama Biosciences; purchased Cama Biosciences (so in the source)
In words: High Throughput Cot Biochemical Assay (KinEASE TR-FRET). The settings on record: Cot KinEASE TR-FRET, 400 μM ATP; read-out: IC50 HTRF. The method, then: Example 61: High Throughput Cot Biochemical Assay
In this assay, Cot-catalyzes the phosphorylation of a XL665-labeled peptide substrate. Europium conjugated phospho-tyrosine specific antibody binds the resulting phosphorylated peptide. […] Purified recombinant human Cot catalytic domain (30-397 amino acids) was purchased from Cama Biosciences. […] The standard 5 μL reaction mixture contained 400 μM ATP, 1 μM STK3 peptide, 5 nM of Cot in reaction buffer (10 mM MOPS, pH 7.0, 0.02% NaN3, 0.5 mg/mL BSA, 10 mM MgOAc, 1 mM DTT, 0.025% NP-40, 1.5% glycerol) and 0.1% DMSO.
Background: TR-FRET usually uses a lanthanide donor and a delayed reading to cut background.
Take `N#Cc1cnc2c(Cl)cc(NC(c3ccc(F)cc3)c3cn(C4CCNC4)nn3)cc2c1Nc1ccc(F)c(Cl)c1` (stereo in doubt) [Example 873, 8-chloro-4-((3-chloro-4-fluorophenyl)amino)-6-(((4-fluorophenyl)(1-((S)-pyrrolidin-3-yl)-1H-1,2,3-triazol-4-yl)methyl)amino)quinoline-3-carbonitrile]: the IC50 amounted to 21 nM.
Regarding `CCN1CCC(n2cc(C(Nc3cc(Cl)c4ncc(C#N)c(Nc5ccc(F)c(Cl)c5)c4c3)c3ccc(Cl)cc3)nn2)CC1` (stereo not drawn) [Compound 6], the IC50 was 13 nM.
For `N#Cc1cnc2c(Cl)cc(N[C@@H](c3ccc(F)cc3)c3cn(C4CCN(C5COC5)CC4)nn3)cc2c1Nc1ccc(F)c(Cl)c1` [Compound 31], the IC50 came out at 19 nM.
For the molecule `COCc1cccc([C@H](Nc2cc(Cl)c3ncc(C#N)c(Nc4ccc(F)c(Cl)c4)c3c2)c2cn(C3CCN(C(C)(C)C)CC3)nn2)c1` [Compound 38], the IC50 was 2 nM.
In the case of `COC(=O)c1cccc([C@@H](c2cn(C3CCN(C(C)(C)C)CC3)nn2)N(C)c2cc(Cl)c3ncc(C#N)c(Nc4ccc(F)c(Cl)c4)c3c2)c1` [Compound 39], the IC50 came to 1990 nM.
On to `N#Cc1cnc2c(Cl)cc(NC(c3ccc(F)cc3)c3ccno3)cc2c1Nc1ccc(F)c(Cl)c1` (stereo not drawn) [Example 717, 8-chloro-4-((3-chloro-4-fluorophenyl)amino)-6-(((4-fluorophenyl)(isoxazol-5-yl)methyl)amino)quinoline-3-carbonitrile], for which the IC50 stood at 1580 nM.
For `Cc1snnc1C(Nc1cc(Cl)c2ncc(C#N)c(Nc3ccc(F)c(Cl)c3)c2c1)c1ccc(F)cc1` (stereo not drawn) [Example 718, 8-chloro-4-((3-chloro-4-fluorophenyl)amino)-6-(((4-fluorophenyl)(5-methyl-1,2,3-thiadiazol-4-yl)methyl)amino)quinoline-3-carbonitrile], the IC50 is 3460 nM.
On the same count and under the same terms, to `C#CC(c1ccc(Cl)cc1)N(c1cc(Cl)c2ncc(C#N)c(Nc3cncc(Cl)c3)c2c1)C(c1ccc(Cl)cc1)c1cn(C2CCN(C(C)(C)C)CC2)nn1` (stereo not drawn) [Example 725, 6-(((1-(1-(tert-butyl)piperidin-4-yl)-1H-1,2,3-triazol-4-yl)(4-chlorophenyl)methyl)(1-(4-chlorophenyl)prop-2-yn-1-yl)amino)-8-chloro-4-((5-chloropyridin-3-yl)amino)quinoline-3-carbonitrile] belongs 338 nM; to `CN(C)CCNCc1cccc([C@H](Nc2cc(Cl)c3ncc(C#N)c(Nc4ccc(F)c(Cl)c4)c3c2)c2cn(C3CCN(C(C)(C)C)CC3)nn2)c1` [Example 726, (S)-6-(((1-(1-(tert-butyl)piperidin-4-yl)-1H-1,2,3-triazol-4-yl)(3-(((2-(dimethylamino)ethyl)amino)methyl)phenyl)methyl)amino)-8-chloro-4-((3-chloro-4-fluorophenyl)amino)quinoline-3-carbonitrile], 39 nM; to `Cn1cc(C(Nc2cc(Cl)c3ncc(C#N)c(Nc4ccc(F)c(Cl)c4)c3c2)c2cccc(C3OCCO3)c2)nn1` (stereo not drawn) [Example 730, 6-(((3-(1,3-dioxolan-2-yl)phenyl)(1-methyl-1H-1,2,3-triazol-4-yl)methyl)amino)-8-chloro-4-((3-chloro-4-fluorophenyl)amino)quinoline-3-carbonitrile], 12 nM.
As to `CC(C)(C)N1CCC(n2cc([C@@H](Nc3cc(Cl)c4ncc(C#N)c(Nc5ccc(F)c(F)c5)c4c3)c3ccc(Cl)cc3)nn2)CC1` [Example 732, (S)-6-(((1-(1-(tert-butyl)piperidin-4-yl)-1H-1,2,3-triazol-4-yl)(4-chlorophenyl)methyl)amino)-8-chloro-4-((3,4-difluorophenyl)amino)quinoline-3-carbonitrile], the IC50 turned out to be 30 nM.
Consider `CN(C)Cc1ccc([C@H](Nc2cc(Cl)c3ncc(C#N)c(Nc4ccc(F)c(Cl)c4)c3c2)c2cn(C3CCN(C(C)(C)C)CC3)nn2)cc1` [Example 735, (S)-6-(((1-(1-(tert-butyl)piperidin-4-yl)-1H-1,2,3-triazol-4-yl)(4-((dimethylamino)methyl)phenyl)methyl)amino)-8-chloro-4-((3-chloro-4-fluorophenyl)amino)quinoline-3-carbonitrile], for which the IC50 was 105 nM.
As for `CN(c1ccc(F)c(Cl)c1)c1c(C#N)cnc2c(Cl)cc(N[C@@H](c3ccc(Cl)cc3)c3cn(C4CCN(C(C)(C)C)CC4)nn3)cc12` [Example 749, (S)-6-(((1-(1-(tert-butyl)piperidin-4-yl)-1H-1,2,3-triazol-4-yl)(4-chlorophenyl)methyl)amino)-8-chloro-4-((3-chloro-4-fluorophenyl)(methyl)amino) quinoline-3-carbonitrile], the IC50 is 3210 nM.
With `COc1cc(Nc2c(C#N)cnc3c(Cl)cc(N[C@@H](c4ccc(Cl)cc4)c4cn(C5CCN(C(C)(C)C)CC5)nn4)cc23)c(Cl)cc1Cl` [Example 751, (S)-6-(((1-(1-(tert-butyl)piperidin-4-yl)-1H-1,2,3-triazol-4-yl)(4-chlorophenyl)methyl)amino)-8-chloro-4-((2,4-dichloro-5-methoxyphenyl)amino)quinoline-3-carbonitrile], the IC50 is > 10000 nM.
For `CC(C)(C)N1CCC(n2cc([C@@H](Nc3cc(Cl)c4ncc(C#N)c(Nc5ccn(CC(F)(F)F)n5)c4c3)c3ccc(Cl)cc3)nn2)CC1` [Example 752, (S)-6-(((1-(1-(tert-butyl)piperidin-4-yl)-1H-1,2,3-triazol-4-yl)(4-chlorophenyl)methyl)amino)-8-chloro-4-((1-(2,2,2-trifluoroethyl)-1H-pyrazol-3-yl)amino)quinoline-3-carbonitrile], the IC50 was > 10000 nM.
`CC(C)(C)N1CCC(n2cc([C@@H](Nc3cc(Cl)c4ncc(C#N)c(Nc5ccc(F)c(S(C)(=O)=O)c5)c4c3)c3ccc(Cl)cc3)nn2)CC1` [Example 754, (S)-6-(((1-(1-(tert-butyl)piperidin-4-yl)-1H-1,2,3-triazol-4-yl)(4-chlorophenyl)methyl)amino)-8-chloro-4-((4-fluoro-3-(methylsulfonyl)phenyl)amino) quinoline-3-carbonitrile]: the IC50 is 2530 nM.
On to `CC(C)(C)N1CCC(n2cc([C@@H](Nc3ccc4nc(N)c(C#N)c(Nc5ccc(F)c(Cl)c5)c4c3)c3ccc(Cl)cc3)nn2)CC1` [Example 760, (S)-2-amino-6-(((1-(1-(tert-butyl)piperidin-4-yl)-1H-1,2,3-triazol-4-yl)(4-chlorophenyl)methyl)amino)-4-((3-chloro-4-fluorophenyl)amino)quinoline-3-carbonitrile], for which the IC50 amounted to 2340 nM.
Regarding `CC(C)(C)N1CCC(n2cc([C@@H](Nc3cc(Cl)c4ncc(C#N)c(Nc5cccc(C(F)F)c5)c4c3)c3ccc(Cl)cc3)nn2)CC1` [Example 761, (S)-6-(((1-(1-(tert-butyl)piperidin-4-yl)-1H-1,2,3-triazol-4-yl)(4-chlorophenyl)methyl)amino)-8-chloro-4-((3-(difluoromethyl)phenyl)amino) quinoline-3-carbonitrile], the IC50 came to 484 nM.
On the same count and under the same terms, in the case of `CC(C)(C)N1CCC(n2cc([C@@H](Nc3cc(Cl)c4ncc(C#N)c(Nc5cccc(C(F)(F)F)c5)c4c3)c3ccc(Cl)cc3)nn2)CC1` [Example 762, (S)-6-(((1-(1-(tert-butyl)piperidin-4-yl)-1H-1,2,3-triazol-4-yl)(4-chlorophenyl)methyl)amino)-8-chloro-4-((3-(trifluoromethyl)phenyl)amino) quinoline-3-carbonitrile] it was 513 nM; in that of `CC(C)(C)N1CCC(n2cc([C@@H](Nc3cc(Cl)c4ncc(C#N)c(Nc5ccc(F)c(Br)c5)c4c3)c3ccc(Cl)cc3)nn2)CC1` [Example 763, (S)-4-((3-bromo-4-fluorophenyl)amino)-6-(((1-(1-(tert-butyl)piperidin-4-yl)-1H-1,2,3-triazol-4-yl)(4-chlorophenyl)methyl)amino)-8-chloroquinoline-3-carbonitrile], 23 nM.
On to `COc1cc2ncc(C#N)c(Nc3ccc(F)c(Cl)c3)c2cc1N[C@@H](c1ccc(Cl)cc1)c1cn(C2CCN(C(C)(C)C)CC2)nn1` [Example 769, (S)-6-(((1-(1-(tert-butyl)piperidin-4-yl)-1H-1,2,3-triazol-4-yl)(4-chlorophenyl)methyl)amino)-4-((3-chloro-4-fluorophenyl)amino)-7-methoxyquinoline-3-carbonitrile], for which the IC50 is > 10000 nM.
For the molecule `CC(C)(C)N1CCC(n2cc([C@@H](Nc3cc(Cl)c4ncc(C#N)c(Nc5ccc(C#N)c(Cl)c5)c4c3)c3ccc(Cl)cc3)nn2)CC1` [Example 770, (S)-6-(((1-(1-(tert-butyl)piperidin-4-yl)-1H-1,2,3-triazol-4-yl)(4-chlorophenyl)methyl)amino)-8-chloro-4-((3-chloro-4-cyanophenyl)amino)quinoline-3-carbonitrile], the IC50 came to 60 nM.
Take `CC(C)(C)N1CCC(n2cc([C@@H](Nc3cc(Cl)c4ncc(C#N)c(Nc5cncc(F)c5)c4c3)c3ccc(Cl)cc3)nn2)CC1` [Example 771, (S)-6-(((1-(1-(tert-butyl)piperidin-4-yl)-1H-1,2,3-triazol-4-yl)(4-chlorophenyl)methyl)amino)-8-chloro-4-((5-fluoropyridin-3-yl)amino)quinoline-3-carbonitrile]: the IC50 came out at 93 nM.

Staying with this test, now noted: first value of the cell IC50/EC50; 400 μM ATP, 5 nM Cot; read-out: IC50/EC50 [nM]: IC50 (Cot).
With `CCN1CCC(n2cc([C@H](C)Nc3cc(Cl)c4ncc(C#N)c(Nc5ccc(F)c(Cl)c5)c4c3)nn2)CC1` [Comparative Example 2, reference compound], the IC50 stood at 62 nM.
